For experiment [1], the system named is MIA PaCa-2-AMGR drug-resistant cell line. The experiment is described as follows: MIA PaCa-2-AMGR drug-resistant cell proliferation inhibitory activity test. Format: cell-based. To be noted: 72 h, MIA PaCa-2-AMGR drug-resistant cells, 3 days incubation, CellTiter-Glo. The gist of the method:
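MIA PaCa-2 line made resistant by stepwise AMG510 exposure up to 1 μM. Cells seeded at 4×10^3/well overnight, then treated with 8 concentrations (5-fold dilutions) for 3 days at 37° C, 5% CO2 in DMEM with 10% FBS + 2.5% horse serum. Viability by CellTiter-Glo luminescence; IC50 versus no-inhibitor control.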

The target of another experiment is KRAS^G12C-SOS1 (Homo sapiens (Human), UniProt P01116, G12C). As to the kind of experiment: HTRF KRAS G12C/SOS1 binding assay. The conditions noted are these: Table 5. The gist of the method: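 Compound was serially diluted five-fold over eight points, with a 2 mM DMSO stock. After anti-tag-Tb3+ and anti-tag-XL665 were added, plates were incubated 3 h at 4 °C and read by HTRF (ex 337 nm, em 620/665 nm ratio). IC50 values come from four-parameter variable-slope fits.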
Chain of KRAS^G12C-SOS1 (P01116-2 other isoform, or with tags, fused parts or gaps G12C): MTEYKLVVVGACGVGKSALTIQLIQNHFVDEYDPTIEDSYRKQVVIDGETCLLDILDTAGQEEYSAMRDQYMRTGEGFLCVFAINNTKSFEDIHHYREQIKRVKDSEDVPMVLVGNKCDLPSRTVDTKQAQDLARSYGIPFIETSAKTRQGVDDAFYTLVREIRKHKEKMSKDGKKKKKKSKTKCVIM

Experiment [2] relates to MIA PaCa-2 cells (KRAS G12C mutant). As to the kind of experiment: MIA PaCa-2 cell anti-proliferation (CellTiter-Glo). Format: cell-based. The conditions noted are these: Homo sapiens, 72 h; MIA Paca-2 cells, 3 days, Table 7; read-out: MIA PaCa-2 (IC50). The method in brief:
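Viable-cell luminescence (CellTiter-Glo, ≥30 min at 25 °C) measured after a 3-day, 37 °C exposure to compounds at 9 points, 4-fold spaced, in DMEM containing 10% FBS plus 2.5% horse serum. IC50 derived versus no-inhibitor wells.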

In a further experiment the target is PI3Kα (Homo sapiens (Human), UniProt P42336). As to the kind of experiment: Inhibition of PI3Kα efficacy assay (ADP-Glo kinase assay). In kind it is biochemical. The conditions noted are these: read-out: PI3Kα inhibitory activity (IC50). The gist of the method:
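ADP-Glo luminescent detection of ADP from PI3Kα acting on PI substrate with ATP, 60 min at RT; compounds in 8-point five-fold serial dilution from 2 mM DMSO stock. IC50 from four-parameter variable-slope fit.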

The target of the next experiment is PI3Kδ (Homo sapiens (Human), UniProt O00329). The experiment is described as follows: Inhibition of PI3Kδ efficacy assay (ADP-Glo kinase assay). Format: biochemical. The conditions noted are these: read-out: PI3Kδ inhibitory activity (IC50). The gist of the method: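 Luminescent ADP-Glo readout of PI3Kδ: after a 60 min RT reaction with PI/ATP substrate, ATP depletion (40 min) and ADP detection (40 min) steps followed. Compounds tested as eight five-fold serial dilutions; inhibition rates fitted to log(inhibitor) vs. response, variable slope, for IC50.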
Chain of PI3Kδ (O00329 whole entry): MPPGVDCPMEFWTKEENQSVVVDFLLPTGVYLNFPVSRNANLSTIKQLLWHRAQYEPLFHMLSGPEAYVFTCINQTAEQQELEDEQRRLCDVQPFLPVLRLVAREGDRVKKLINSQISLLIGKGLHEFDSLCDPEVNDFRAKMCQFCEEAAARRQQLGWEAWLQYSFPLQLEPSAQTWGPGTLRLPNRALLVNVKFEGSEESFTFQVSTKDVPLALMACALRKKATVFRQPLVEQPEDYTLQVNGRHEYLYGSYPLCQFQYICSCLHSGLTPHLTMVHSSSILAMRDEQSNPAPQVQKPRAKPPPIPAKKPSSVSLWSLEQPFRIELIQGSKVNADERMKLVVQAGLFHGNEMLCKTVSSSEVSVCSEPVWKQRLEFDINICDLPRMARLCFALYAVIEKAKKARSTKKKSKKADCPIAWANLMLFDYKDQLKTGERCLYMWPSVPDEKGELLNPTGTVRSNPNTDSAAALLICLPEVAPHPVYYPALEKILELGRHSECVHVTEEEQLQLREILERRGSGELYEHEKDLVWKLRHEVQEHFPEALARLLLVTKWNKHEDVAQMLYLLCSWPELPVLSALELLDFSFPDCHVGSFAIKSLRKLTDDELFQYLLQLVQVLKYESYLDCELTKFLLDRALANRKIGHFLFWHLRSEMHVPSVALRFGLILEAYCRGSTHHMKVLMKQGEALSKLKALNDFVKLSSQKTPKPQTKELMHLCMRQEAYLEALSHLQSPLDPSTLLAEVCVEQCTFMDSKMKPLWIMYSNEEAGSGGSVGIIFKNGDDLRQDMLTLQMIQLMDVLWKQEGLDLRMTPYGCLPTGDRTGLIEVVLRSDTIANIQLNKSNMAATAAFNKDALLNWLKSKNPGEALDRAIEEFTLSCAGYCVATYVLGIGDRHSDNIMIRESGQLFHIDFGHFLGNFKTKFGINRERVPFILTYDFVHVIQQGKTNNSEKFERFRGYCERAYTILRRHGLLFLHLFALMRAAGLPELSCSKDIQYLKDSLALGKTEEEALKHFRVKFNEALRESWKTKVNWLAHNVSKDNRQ
Chain of PI3Kδ (P27986 whole entry partner): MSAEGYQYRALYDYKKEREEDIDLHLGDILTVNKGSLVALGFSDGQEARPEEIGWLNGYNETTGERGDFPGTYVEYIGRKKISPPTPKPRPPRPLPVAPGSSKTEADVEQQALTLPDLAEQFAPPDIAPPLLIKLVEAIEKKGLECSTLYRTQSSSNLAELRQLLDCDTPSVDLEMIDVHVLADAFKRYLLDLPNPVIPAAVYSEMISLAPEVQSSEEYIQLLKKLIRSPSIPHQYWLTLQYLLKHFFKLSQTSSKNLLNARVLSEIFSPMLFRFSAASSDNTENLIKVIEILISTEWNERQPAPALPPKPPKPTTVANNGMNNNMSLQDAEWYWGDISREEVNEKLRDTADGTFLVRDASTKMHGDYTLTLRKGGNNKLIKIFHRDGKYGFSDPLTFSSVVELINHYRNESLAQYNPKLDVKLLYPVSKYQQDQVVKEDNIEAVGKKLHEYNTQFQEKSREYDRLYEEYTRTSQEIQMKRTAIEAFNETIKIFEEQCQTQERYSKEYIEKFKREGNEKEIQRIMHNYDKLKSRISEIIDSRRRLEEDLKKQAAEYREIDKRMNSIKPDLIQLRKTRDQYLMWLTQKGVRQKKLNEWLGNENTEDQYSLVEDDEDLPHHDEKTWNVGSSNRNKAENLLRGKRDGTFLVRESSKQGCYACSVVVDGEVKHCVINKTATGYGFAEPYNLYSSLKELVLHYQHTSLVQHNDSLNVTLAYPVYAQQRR
(In general: ADP-Glo turns the ADP formed in a reaction into a luminescent signal.)

Like-named read-outs stand apart in the source and are kept apart here.

Chain of PI3Kα (P42336 whole entry): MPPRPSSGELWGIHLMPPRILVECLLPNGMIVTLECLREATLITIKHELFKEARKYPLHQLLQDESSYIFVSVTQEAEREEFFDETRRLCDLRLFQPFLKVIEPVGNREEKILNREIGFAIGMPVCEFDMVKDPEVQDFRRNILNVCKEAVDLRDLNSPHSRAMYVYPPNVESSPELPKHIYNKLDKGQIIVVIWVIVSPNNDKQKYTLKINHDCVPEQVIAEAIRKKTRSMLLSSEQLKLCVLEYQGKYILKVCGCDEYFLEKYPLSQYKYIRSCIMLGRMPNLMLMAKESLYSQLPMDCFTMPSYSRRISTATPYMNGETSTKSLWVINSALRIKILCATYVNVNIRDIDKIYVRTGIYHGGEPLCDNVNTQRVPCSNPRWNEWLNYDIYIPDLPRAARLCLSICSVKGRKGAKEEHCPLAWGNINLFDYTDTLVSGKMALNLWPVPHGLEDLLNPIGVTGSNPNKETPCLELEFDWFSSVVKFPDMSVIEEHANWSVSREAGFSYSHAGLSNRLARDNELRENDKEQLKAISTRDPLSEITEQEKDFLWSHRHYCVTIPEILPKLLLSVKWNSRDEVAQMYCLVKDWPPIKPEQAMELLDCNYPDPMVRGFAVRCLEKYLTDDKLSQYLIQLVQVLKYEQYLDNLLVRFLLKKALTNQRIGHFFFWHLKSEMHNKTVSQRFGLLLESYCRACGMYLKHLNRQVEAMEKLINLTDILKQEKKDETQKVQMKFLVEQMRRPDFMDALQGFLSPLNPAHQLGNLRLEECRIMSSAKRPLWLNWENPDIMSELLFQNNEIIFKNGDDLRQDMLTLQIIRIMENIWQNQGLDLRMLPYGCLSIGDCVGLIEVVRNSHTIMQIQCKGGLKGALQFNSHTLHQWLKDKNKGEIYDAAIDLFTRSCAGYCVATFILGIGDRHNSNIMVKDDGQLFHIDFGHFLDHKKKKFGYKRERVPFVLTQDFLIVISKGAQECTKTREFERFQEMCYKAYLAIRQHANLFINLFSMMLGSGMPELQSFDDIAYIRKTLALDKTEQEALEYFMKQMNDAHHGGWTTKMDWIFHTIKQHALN
Chain of PI3Kα (P27986 whole entry partner): as the sequence (P27986 whole entry partner) above

For `COc1ncc(-c2ccc3ncnc(N4CC5CCC(C4)N5C(=O)/C=C/C(C)=O)c3c2)cc1NS(=O)(=O)c1c(F)cccc1F` [Example 145, 2,6-difluoro-N-(2-methoxy-5-(4-(8-((E)-4-oxopent-2-enoyl)-3,8-diazabicyclo[3.2.1]octan-3-yl)quinazolin-6-yl)pyridin-3-yl)benzenesulfonamide], the IC50 (as a rule, the midpoint of a concentration-inhibition curve) in experiment [1] stood at 113 nM; at KRAS^G12C-SOS1 it was 200 nM; in experiment [2], 77.2 nM; on PI3Kα (Table 4), 0.44 nM; on PI3Kδ (Table 4) it was 23.8 nM.
Regarding `C=C(C(C)=O)C(=O)N1CCN(c2ncnc3ccc(-c4cnc(OC)c(NS(=O)(=O)c5ccc(F)cc5F)c4)cc23)CC1` [Example 168, 2,4-difluoro-N-(2-methoxy-5-(4-(4-(2-methylene-3-oxobutanoyl)piperazin-1-yl)quinazolin-6-yl)pyridin-3-yl)benzenesulfonamide], the IC50 in experiment [1] came out at 192 nM; on KRAS^G12C-SOS1 it was 546 nM; in experiment [2], 48.5 nM; at PI3Kα (Table 4) it was 6.2 nM; on PI3Kδ (Table 4) it was 17.2 nM.
Consider `COc1ncc(-c2ccc3ncnc(N4CCN(C(=O)/C=C/C(C)=O)C[C@@H]4C)c3c2)cc1NS(=O)(=O)c1c(F)cccc1F` [Example 46, (S,E)-2,6-difluoro-N-(2-methoxy-5-(4-(2-methyl-4-(4-oxopent-2-enoyl)piperazin-1-yl)quinazolin-6-yl)pyridin-3-yl) benzenesulfonamide], for which the IC50 in experiment [1] was found to be 77.4 nM; on KRAS^G12C-SOS1, 166 nM; in experiment [2], 91.9 nM; on PI3Kα (Table 2), 1.7 nM; on PI3Kδ (Table 2), 36.3 nM.
For `COc1ncc(-c2ccc3ncnc(N4CCN(C(=O)/C=C/C(C)=O)C[C@@H]4C)c3c2)cc1NS(=O)(=O)c1c(F)cc(F)cc1F` [Example 154, (S,E)-2,4,6-trifluoro-N-(2-methoxy-5-(4-(2-methyl-4-(4-oxopent-2-enoyl)piperazin-1-yl)quinazolin-6-yl)pyridin-3-yl)benzenesulfonamide], the IC50 in experiment [1] was 32.2 nM; at KRAS^G12C-SOS1 it was 183 nM; in experiment [2] it was 28.8 nM; at PI3Kα (Table 4), 0.54 nM; on PI3Kδ (Table 4), 13.8 nM.
For the compound `COc1ncc(-c2ccc3ncnc(N4CCN(C(=O)/C=C/C(C)=O)CC4)c3c2)cc1NS(=O)(=O)c1c(F)cncc1F` [Example 102, (E)-3,5-difluoro-N-(2-methoxy-5-(4-(4-(4-oxopent-2-enoyl)piperazin-1-yl)quinazolin-6-yl)pyridin-3-yl)pyridine-4-sulfonamide], the IC50 amounted to 908 nM in experiment [1]; 141 nM at KRAS^G12C-SOS1; 142 nM in experiment [2]; 1.2 nM on PI3Kα (Table 2); 32.8 nM on PI3Kδ (Table 2).
In the case of `COc1ncc(-c2ccc3ncnc(N4CCN(C(=O)/C=C/C(C)=O)C[C@@H]4C)c3c2)cc1NS(=O)(=O)c1ccccc1F` [Example 152, (S,E)-2-fluoro-N-(2-methoxy-5-(4-(2-methyl-4-(4-oxopent-2-enoyl)piperazin-1-yl)quinazolin-6-yl)pyridin-3-yl)benzenesulfonamide], the half-inhibitory concentration (IC50) in experiment [1] worked out at 52.1 nM; on KRAS^G12C-SOS1 it was 175 nM; in experiment [2] it was 68.8 nM; on PI3Kα (Table 4), 0.28 nM; on PI3Kδ (Table 4) it was 15.5 nM.

(Values after US20250145589A1, “PYRIDINE DERIVATIVE AND USE THEREOF” (SICHUAN HUIYU PHARMACEUTICAL CO., LTD., priority 2021, published 2025).)
